Laboratory results: the NIST ThermoML archive (doi:10.1021/je500275j)

Assay: xn = mol fraction of the nth substance listed
Conditions: 100 kPa, Liquid; for viscosity: Falling or rolling sphere viscometry; for mass density: Vibrating tube method

C1CCC(C2CCCCC2)CC1 [1,1'-bicyclohexyl] + CCCCC1CCCCC1
Conditions	mass density [kg/m3]	viscosity [mPa·s]
293.15 K, x1 = 0.1002	809.11	1.43
293.15 K, x1 = 0.2003	818.37	1.585
293.15 K, x1 = 0.2997	827.41	1.757
293.15 K, x1 = 0.4002	836.41	1.952
293.15 K, x1 = 0.4999	845.11	2.184
293.15 K, x1 = 0.6011	853.76	2.45
293.15 K, x1 = 0.7003	862.14	2.759
293.15 K, x1 = 0.7999	870.34	3.132
293.15 K, x1 = 0.9008	878.53	3.563
293.15 K, x1 = 1	886.39	4.017
298.15 K, x1 = 0.1002	805.38	1.311
298.15 K, x1 = 0.2003	814.66	1.449
298.15 K, x1 = 0.2997	823.71	1.6
298.15 K, x1 = 0.4002	832.69	1.772
298.15 K, x1 = 0.4999	841.44	1.975
298.15 K, x1 = 0.6011	850.11	2.205
298.15 K, x1 = 0.7003	858.51	2.471
298.15 K, x1 = 0.7999	866.72	2.797
298.15 K, x1 = 0.9008	874.92	3.15
298.15 K, x1 = 1	882.79	3.541
303.15 K, x1 = 0.1002	801.64	1.209
303.15 K, x1 = 0.2003	810.94	1.332
303.15 K, x1 = 0.2997	820.01	1.466
303.15 K, x1 = 0.4002	829.01	1.619
303.15 K, x1 = 0.4999	837.77	1.796
303.15 K, x1 = 0.6011	846.46	1.998
303.15 K, x1 = 0.7003	854.87	2.231
303.15 K, x1 = 0.7999	863.09	2.508
303.15 K, x1 = 0.9008	871.31	2.812
303.15 K, x1 = 1	879.19	3.145
308.15 K, x1 = 0.1002	797.9	1.12
308.15 K, x1 = 0.2003	807.21	1.229
308.15 K, x1 = 0.2997	816.31	1.349
308.15 K, x1 = 0.4002	825.32	1.485
308.15 K, x1 = 0.4999	834.1	1.643
308.15 K, x1 = 0.6011	842.81	1.821
308.15 K, x1 = 0.7003	851.24	2.022
308.15 K, x1 = 0.7999	859.47	2.272
308.15 K, x1 = 0.9008	867.7	2.53
308.15 K, x1 = 1	875.6	2.817
313.15 K, x1 = 0.1002	794.15	1.041
313.15 K, x1 = 0.2003	803.48	1.139
313.15 K, x1 = 0.2997	812.6	1.247
313.15 K, x1 = 0.4002	821.64	1.368
313.15 K, x1 = 0.4999	830.43	1.508
313.15 K, x1 = 0.6011	839.15	1.665
313.15 K, x1 = 0.7003	847.6	1.844
313.15 K, x1 = 0.7999	855.85	2.061
313.15 K, x1 = 0.9008	864.1	2.288
313.15 K, x1 = 1	872.01	2.54
318.15 K, x1 = 0.1002	790.39	0.971
318.15 K, x1 = 0.2003	799.75	1.059
318.15 K, x1 = 0.2997	808.89	1.157
318.15 K, x1 = 0.4002	817.94	1.265
318.15 K, x1 = 0.4999	826.76	1.391
318.15 K, x1 = 0.6011	835.5	1.532
318.15 K, x1 = 0.7003	843.97	1.689
318.15 K, x1 = 0.7999	852.23	1.883
318.15 K, x1 = 0.9008	860.5	2.082
318.15 K, x1 = 1	868.43	2.302
